Results taken from patent US20260217746A1, “CRYSTALLINE FORMS OF ANTIOXIDANT COMPOUND” (Mitotech Ltd, priority 2023, published 2026).
One block for each compound: values may come before it.

What was measured:
Type in all cases: physicochemical
[1] = Resistance to gamma radiation (sterilization); conditions: sterilization by gamma radiation
[2] = Photodegradation of solid SkQ1 bromide under natural day/night illumination
Description: As a result, SkQ1 was stored in light protective packaging or a dark glass container. The crystalline form of SkQ1 bromide as prepared in Example 2C and was tested by placing 50 mg portions at room temperature in transparent plastic vials, under conditions of natural change of day and night illumination with indirect sunlight.

[3] = Stability of crystalline SkQ1 chloride and iodide compared with SkQ1 bromide; conditions: crystals obtained by the same crystallization methods
Source text: Purity and stability parameters of obtained SkQ1 Cl and SkQ I were similar to such parameters of SkQ1 bromide.

[4] = Solubility in water and in protic solvents (observations during crystallization work)
Description: Attempts to reduce the concentration of ethanol and to use isopropanol were undertaken. SkQ1 bromide in an amount of 177 mg was added to an ethanol (1V)-ethyl acetate (5V) mixture. In another experiment, SkQ1 in an amount of 178 mg was added to an isopropanol (1V)-ethyl acetate (5V) mixture. […] To each of the above solutions, 5V ml of MTBE was added, initially oiling out the supersaturated solution. After leaving the solution overnight at room temperature, crystals were formed. This process with varying amounts of ethanol (from 0.274-0.574 V) led to similar results of solid formation after MTBE addition. Similarly, ethyl acetate was increased to 10V, with similar results of fine solid formation only after adding MTBE, but with lower yields. When ethanol solvent amounts were increased ton 1.174 V, crystallization occurred after adding MTBE, but yields were low.

[5] = Hygroscopicity of the isolated solid; conditions: non-crystalline solid as isolated
Source text: Hygroscopic solids are associated with numerous difficulties when attempting to use them in pharmaceutical compositions, including low stability and difficulty in handling. Crystallization of halide salts of SkQ1 by using a number of solvents, individually or in combination, was attempted.

- stability to gamma radiation ([1]; listed as oil form): degraded
- photosensitivity ([2]; amorphous form, stored in light protective packaging or dark glass container): photosensitive
Compound: CC1=C(C)C(=O)C(CCCCCCCCCC[P+](c2ccccc2)(c2ccccc2)c2ccccc2)=CC1=O [Amorphous SkQ1 bromide, 2,3-dimethyl-1,4-benzoquinone-5-decyl-triphenylphosphonium bromide, reference compound]

- stability parameters relative to SkQ1 bromide [3]: similar
Compound: CC1=C(C)C(=O)C(CCCCCCCCCC[P+](c2ccccc2)(c2ccccc2)c2ccccc2)=CC1=O [SkQ1 Cl]

- solubility in protic solvents ([4]; ethanol (1V)- or isopropanol (1V)-ethyl acetate (5V) mixture, room temperature, 0.5 hours): highly soluble
- solubility in water ([4]; water): sparingly soluble
- hygroscopicity [5]: hygroscopic
- hygroscopicity ([5]; listed as SkQ1 bromide salt): highly hygroscopic
Compound: CC1=C(C)C(=O)C(CCCCCCCCCC[P+](c2ccccc2)(c2ccccc2)c2ccccc2)=CC1=O [SkQ1 bromide, 2,3-dimethyl-1,4-benzoquinone-5-decyl-triphenylphosphonium bromide]

- stability to gamma radiation ([1]; listed as crystalline SkQ1): resistant to gamma radiation
- resistance to degradation, in particular photodegradation, compared to the previously known amorphous form ([2]; crystalline versus amorphous form): more resistant to degradation
Compound: CC1=C(C)C(=O)C(CCCCCCCCCC[P+](c2ccccc2)(c2ccccc2)c2ccccc2)=CC1=O [crystalline form of SkQ1 bromide, 2,3-dimethyl-1,4-benzoquinone-5-decyl-triphenylphosphonium bromide]
- sample photodegradation ([2]; 50 mg portions, room temperature, transparent plastic vials, natural day and night illumination with indirect sunlight, analyzed at 6 hours, 4 days, 1 month and 2 months): no degradation was found in any of the samples
